The source of these data is a melting point compilation (Tetko et al.).

Usually melting point stands for the temperature of the solid-liquid transition.

Regarding `O=C1CC(c2ccccc2)C(=O)N1` (centres undefined), the melting point was 72 to 74 °C.

Consider `O=Cc1cncc2ccccc12`, for which the melting point was in the range of 103 to 105 °C.

As for `COc1ccc2c(c1)C(=O)CCO2`, the melting point was 44 to 46 °C.

`Cc1cc(Sc2nccn2C)ccc1N` gave a melting point of 101 to 103 °C.

`CCC(=O)N1CCC(C(=O)O)C1` (centres undefined) came in with a melting point of 118 to 120 °C.

The compound `C=CC(=O)NCC1CCCCC1` registered a melting point of 47 to 49 °C.

The compound `O=C(O)c1cc(S(=O)(=O)N2CCSCC2)c[nH]1` came in with a melting point of 238 to 240 °C.

In the case of `NNC(=O)Cc1ccncc1`, the melting point was 91 to 93 °C.

As to `Nc1nnc(-c2cccs2)[nH]1`, the melting point was 202 to 204 °C.

Consider `Cc1noc2ncc(N)cc12`, for which the melting point was 179 to 181 °C.

`COc1ccc(OC)c(S(=O)(=O)N2CCNCC2)c1` showed a melting point of 103 to 105 °C.

Take `Nc1cccc(NC(=O)c2ccncc2)c1`: the melting point lay within 185 to 187 °C.

`COCCS(=O)(=O)c1ccc(Cl)c(C(=O)O)c1Cl` returned a melting point of 129 to 131 °C.

Turning to `Cc1cc2ncc(SC(=O)N(C)C)cn2n1`, the melting point lay in the range of 144 to 146 °C.

`C=CCNC(=O)c1ccc(N)cc1` registered a melting point of 78 to 80 °C.

Take `CCOc1cc(C=CC(=O)O)ccc1OCC(C)C`: the melting point is 72 to 74 °C.

As to `Nc1ccnc(Oc2ccccc2Br)c1`, the melting point is 108 to 110 °C.

Compound `Cc1cc(S(=O)(=O)Nc2sc3c(c2C(N)=O)CCC(C)C3)ccc1Br` (centres undefined) had a melting point of 218 to 220 °C.

Compound `CC(C)(C)c1ccc(C(=O)C(=O)O)cc1` came in with a melting point of 67 to 69 °C.

`NC(=O)c1cccc(F)c1I` registered a melting point of 189 to 191 °C.

For `CCNc1c(N)n(CC)c(=O)[nH]c1=O`, the melting point fell in the range of 210 to 212 °C.

`Cn1ccc(S(=O)(=O)N2CCNCC2)c1`: the melting point lay within 129 to 131 °C.

Take `O=C(O)c1cc(S(=O)(=O)NCCN2CCCC2)ccc1Cl`: the melting point fell in the range of 279 to 281 °C.

With `Nc1nc(C(F)(F)F)c[nH]1`, the melting point was in the range of 121 to 123 °C.

The compound `O=C(NCc1ccco1)OCC(F)(F)F` displayed a melting point of 35 to 37 °C.

In turn, `CCCOc1ccc(C(=O)NN)cc1` registered a melting point of 88 to 90 °C.

As to `O=C(O)c1ccc(Nc2ccc(F)c(F)c2)c([N+](=O)[O-])c1`, the melting point was 237 to 239 °C.

`Cc1cccc(-n2c(C)cc(/C=C(\C#N)C(=O)O)c2C)c1` displayed a melting point of 75 to 77 °C.

Take `O=C(O)C1CC(=O)N(c2cccc(Cl)c2)C1` (centres undefined): the melting point is 133 to 135 °C.

`COc1ccc(S(N)(=O)=O)cc1C(=O)O` displayed a melting point of 224 to 226 °C.

Turning to `O=C(O)CN1CSCC1=O`, the melting point lay within 171 to 173 °C.

In the case of `COC(=O)c1cc2cc(CBr)ccc2o1`, the melting point fell in the range of 108 to 110 °C.

As for `NC(=S)N1CCSCC1`, the melting point is 157 to 159 °C.

`CC(C)(C)OC(=O)N1CCNC(C#N)C1` (centres undefined) gave a melting point of 109 to 111 °C.

In the case of `Cc1cc(C(=O)NCC(C)C)ccc1N`, the melting point lay within 91 to 93 °C.

The compound `CC(Cl)C(=O)c1c[nH]c2ccccc12` (centres undefined) returned a melting point of 190 to 192 °C.

`CCC(C)n1nc(N)cc1C` (centres undefined) returned a melting point of 54 to 56 °C.

On to `CCn1c(SCC(=O)N2c3ccccc3Sc3ccccc32)nnc1-c1ccco1`, for which the melting point was in the range of 152 to 154 °C.

The compound `Clc1nnc(-c2cccs2)c2ccccc12` showed a melting point of 128 to 130 °C.

The compound `N#CCCNc1ccc(F)cc1` had a melting point of 38 to 42 °C.

With `CS(=O)CCC(=O)O` (centres undefined), the melting point was 57 to 59 °C.

On to `CN(C)c1ccc(C(=O)O)cn1`, for which the melting point lay within 225 to 227 °C.

Take `CC1(C(=O)O)CCCc2ccccc21` (centres undefined): the melting point is 113 to 115 °C.

The compound `O=C(Nc1ccccc1)c1ccc(O)cc1` had a melting point of 195 to 197 °C.

`Cc1c(C(=O)O)nnn1-c1cccc2cccnc12`: the melting point was 188 to 190 °C.

The compound `O=C(O)CCCOc1ccc(F)cc1F` showed a melting point of 74 to 76 °C.

`CCOc1cc(C(=O)O)c(N)cc1OC` gave a melting point of 185 to 187 °C.

For the compound `O=C(O)c1c[nH]cc1-c1ccc(F)cc1`, the melting point lay in the range of 199 to 201 °C.

The compound `CCCNC(=O)CC#N` registered a melting point of 53 to 55 °C.
